These results are taken from patent US11865108B2, “Nitrogen containing bicyclic compounds” (Wockhardt Limited, priority 2019, dated 2024).

The subject of one assay is K. pneumoniae B 77. In words: MIC alone and in combination, K. pneumoniae B 77. Type of assay: cell-based. The note with it: Klebsiella pneumoniae, B77, 18 h, beta lactamase NDM, ESBL, alone or in combination as labelled. The method, then: (§1) The biological activity of representative compounds according to the invention against various bacterial strains was investigated. In a typical study, overnight grown bacterial cultures were diluted appropriately and inoculated on the agar media containing doubling dilutions of the test compounds. Observations for growth or no growth was performed after 16-20 hours of incubation at 35±2° C. in the ambient air. The overall procedure was performed as per Clinical and Laboratory Standards Institute (CLSI) recommendations, (Clinical and Laboratory Standards Institute (CLSI), Performance Standards for Antimicrobial Susceptibility Testing, 20th Informational Supplement, M07-A9, Volume 32, No. 2, 2012). Molten Mueller Hinton Agar (MHA) (BD, USA) containing serial dilutions of each antibacterial agent were poured on to the plates and allowed to solidify. Appropriate suspensions from the freshly grown cultures were prepared in normal saline so that about 10^4 CFU/spot of the organism was delivered on to the drug containing agar plates using automated multipoint inoculator (Mast, UK). The plates were incubated in Biochemical oxygen demand (BOD) incubator at 37° C. for 18 hours and then examined for growth. […] The Table 2 depicts the antibacterial activity profile of compounds according to present invention against various multidrug resistant bacterial strains.
(§2) The antibacterial activity of compounds according to the invention was also investigated in combination with several antibacterial agents. For example, antibacterial activity of the representative compounds of Formula (I) (Example 1 and Example 2) in combination with Ceftazidime and Cefixime are summarized in Table 3.

For the next assay, the system named is K. pneumoniae B 88. In words: MIC alone and in combination, K. pneumoniae B 88. Type of assay: cell-based. The note with it: Klebsiella pneumoniae, B88, 18 h, beta lactamase NDM, ESBL, alone or in combination as labelled. The method, then:
as §1, §2

In the next assay the test system is K. pneumoniae NCTC 13443. In words: MIC alone and in combination, K. pneumoniae NCTC 13443. The format is cell-based. The conditions noted are these: Klebsiella pneumoniae, NCTC13443, 18 h, beta lactamase NDM, ESBL, alone or in combination as labelled. The method, then:
as §1, §2

The next assay relates to K. pneumoniae S 465. In words: MIC alone and in combination, K. pneumoniae S 465. The note with it: Klebsiella pneumoniae, S465, 18 h, beta lactamase OXA-181, ESBL, alone or in combination as labelled. The format is cell-based. The method, then: as §1, §2
The next assay relates to K. pneumoniae NCTC 13439. In words: MIC alone and in combination, K. pneumoniae NCTC 13439. Type of assay: cell-based. The note with it: Klebsiella pneumoniae, NCTC13439, 18 h, beta lactamase VIM-1, alone or in combination as labelled. The method, then: as §1, §2
Assay [1] has as its system Multi Drug Resistant (MDR) Gram negative strains. In words: Antibacterial activity alone and in combination, summary of Table 3. The note with it: for antibacterial activity when used alone: strains of Table 3. The format is cell-based, K. pneumoniae. The procedure: as §1, §2
In the next assay the test system is KP ATCC 700603. In words: Agar dilution MIC, KP ATCC 700603. The conditions noted are these: Klebsiella pneumoniae, ATCC700603. The format is cell-based, K. pneumoniae. The procedure:
as §1

The next assay deals with E. Coli 13351. In words: Agar dilution MIC, E. Coli 13351. Type of assay: cell-based. The conditions noted are these: Escherichia coli. The procedure:
as §1
(In general: Agar dilution tests growth on a series of plates holding different concentrations.)

The subject of a further assay is E. Coli 13352. In words: Agar dilution MIC, E. Coli 13352. Type of assay: cell-based. The note with it: Escherichia coli. The procedure:
as §1

In another assay the test system is E. Coli 13353. In words: Agar dilution MIC, E. Coli 13353. The format is cell-based. The conditions noted are these: Escherichia coli. The procedure: as §1
Another assay deals with E. Coli M 36. In words: Agar dilution MIC, E. Coli M 36. The conditions noted are these: Escherichia coli. Type of assay: cell-based. The procedure:
as §1

A further assay deals with E. Coli 7 MP. In words: Agar dilution MIC, E. Coli 7 MP. The conditions noted are these: Escherichia coli. Type of assay: cell-based. The procedure:
as §1

The test system of another assay is E. Coli M 49. In words: Agar dilution MIC, E. Coli M 49. The note with it: Escherichia coli. Type of assay: cell-based. The procedure: as §1
The next assay relates to E. Coli M 50. In words: Agar dilution MIC, E. Coli M 50. The conditions noted are these: Escherichia coli. The format is cell-based. The procedure:
as §1

In another assay the test system is E. Coli M 138. In words: Agar dilution MIC, E. Coli M 138. The conditions noted are these: Escherichia coli. Type of assay: cell-based. The procedure: as §1
A further assay deals with E. Coli S 18. In words: Agar dilution MIC, E. Coli S 18. The format is cell-based. The note with it: Escherichia coli. The procedure:
as §1

A further assay relates to K. pneumoniae H 521. In words: Agar dilution MIC, K. pneumoniae H 521. The format is cell-based. The note with it: Klebsiella pneumoniae, H521. The method, then: as §1
In another assay the test system is K. pneumoniae H 522. In words: Agar dilution MIC, K. pneumoniae H 522. The conditions noted are these: Klebsiella pneumoniae, H522. The format is cell-based. The method, then: as §1
In a further assay the test system is K. pneumoniae H 523. In words: Agar dilution MIC, K. pneumoniae H 523. The note with it: Klebsiella pneumoniae, H523. The format is cell-based. The method, then:
as §1

In a further assay the test system is K. pneumoniae H 525. In words: Agar dilution MIC, K. pneumoniae H 525. The format is cell-based. The note with it: Klebsiella pneumoniae, H525. The method, then:
as §1

Molecules are shown by their SMILES. Converted amounts (≈) assume the structure as drawn.

As a reminder, the MIC is the lowest concentration found to suppress growth. `C=CC1=C(C(=O)O)N2C(=O)[C@@H](NC(=O)/C(=N\OCC(=O)O)c3csc(N)n3)[C@H]2SC1` [Cefixime, reference compound]: the minimum inhibitory concentration (MIC) in the assay on K. pneumoniae B 77, in the assay on K. pneumoniae B 88, in the assay on K. pneumoniae NCTC 13443, in the assay with K. pneumoniae S 465 and with K. pneumoniae NCTC 13439 was > 32 µg/mL in each case.
`CC(C)(O/N=C(\C(=O)N[C@@H]1C(=O)N2C(C(=O)[O-])=C(C[n+]3ccccc3)CS[C@H]12)c1csc(N)n1)C(=O)O` [Ceftazidime, reference compound]: the minimum inhibitory concentration (MIC) in the assay with K. pneumoniae B 77, with K. pneumoniae B 88, with K. pneumoniae NCTC 13443, with K. pneumoniae S 465 and in the assay with K. pneumoniae NCTC 13439 was > 32 µg/mL each time. Besides, the “antibacterial activity when used alone” value in assay [1] is listed as “did not exhibit significant antibacterial activity”.
`C[C@@H]1CN[C@H](CONC(=O)[C@@H]2CC[C@@H]3CN2C(=O)N3OS(=O)(=O)O)C1` [Example 2, (2S,5R)—N-{[(2S,4S)-4-Methyl-pyrrolidin-2-yl]methyloxy}-7-oxo-6-(sulfooxy)-1,6-diazabicyclo[3.2.1]octane-2-carboxamide]: the MIC is > 32 µg/mL in the assay with KP ATCC 700603; 1 µg/mL (≈ 2.64 µM) against E. Coli 13351; 1 µg/mL (≈ 2.64 µM) against E. Coli 13352; 0.5 µg/mL (≈ 1.32 µM) against E. Coli 13353; 0.5 µg/mL (≈ 1.32 µM) with E. Coli M 36; 2 µg/mL (≈ 5.29 µM) against E. Coli 7 MP. In addition, the minimum inhibitory concentration (MIC) against E. Coli M 49 came to 4 µg/mL (≈ 10.6 µM); against E. Coli M 50 it was 1 µg/mL (≈ 2.64 µM); with E. Coli M 138 it was 1 µg/mL (≈ 2.64 µM); in the assay with E. Coli S 18 it was 1 µg/mL (≈ 2.64 µM); with K. pneumoniae H 521, 2 µg/mL (≈ 5.29 µM); against K. pneumoniae H 522 it was 1 µg/mL (≈ 2.64 µM). Further, the minimum inhibitory concentration (MIC) in the assay on K. pneumoniae H 523 was 1 µg/mL (≈ 2.64 µM); with K. pneumoniae H 525, 1 µg/mL (≈ 2.64 µM); with K. pneumoniae B 77, > 32 µg/mL; in the assay with K. pneumoniae B 88 it was > 32 µg/mL; with K. pneumoniae NCTC 13443, > 32 µg/mL; in the assay on K. pneumoniae S 465 it was > 32 µg/mL. The MIC in the assay with K. pneumoniae NCTC 13439 is > 32 µg/mL. In addition, the “antibacterial effect in combination” value in assay [1] (in combination with Ceftazidime and Cefixime, highly resistant bacterial strains) is “unusual and unexpected synergistic antibacterial effect”. Further, the “antibacterial activity when used alone” value in [1] is listed as “did not exhibit significant antibacterial activity”.
As for `C[C@@H]1CN[C@@H](CONC(=O)[C@@H]2CC[C@@H]3CN2C(=O)N3OS(=O)(=O)O)C1` [Example 3, (2S,5R)—N-{[(2R,4S)-4-Methyl-pyrrolidin-2-yl]methyloxy}-7-oxo-6-(sulfooxy)-1,6-diazabicyclo[3.2.1]octane-2-carboxamide], the minimal inhibitory concentration (MIC) against KP ATCC 700603 was > 32 µg/mL; in the assay on E. Coli 13351, 1 µg/mL (≈ 2.64 µM); against E. Coli 13352 it was 1 µg/mL (≈ 2.64 µM); against E. Coli 13353, 0.5 µg/mL (≈ 1.32 µM); in the assay on E. Coli M 36, 0.5 µg/mL (≈ 1.32 µM); against E. Coli 7 MP, 2 µg/mL (≈ 5.29 µM). In addition, the MIC against E. Coli M 49 was 4 µg/mL (≈ 10.6 µM); in the assay with E. Coli M 50, 0.5 µg/mL (≈ 1.32 µM); with E. Coli M 138 it was 0.5 µg/mL (≈ 1.32 µM); against E. Coli S 18 it was 1 µg/mL (≈ 2.64 µM); against K. pneumoniae H 521, 1 µg/mL (≈ 2.64 µM); against K. pneumoniae H 522, 1 µg/mL (≈ 2.64 µM). Also, the minimal inhibitory concentration (MIC) in the assay with K. pneumoniae H 523 and in the assay with K. pneumoniae H 525 was 0.5 µg/mL (≈ 1.32 µM) each time.
Take `C[C@H]1CN[C@@H](CONC(=O)[C@@H]2CC[C@@H]3CN2C(=O)N3OS(=O)(=O)O)C1` [Example 4, (2S,5R)—N-{[(2R,4R)-4-Methyl-pyrrolidin-2-yl]methyloxy}-7-oxo-6-(sulfooxy)-1,6-diazabicyclo[3.2.1]octane-2-carboxamide]: the MIC in the assay with KP ATCC 700603 was > 32 µg/mL; against E. Coli 13351, 1 µg/mL (≈ 2.64 µM); against E. Coli 13352, 2 µg/mL (≈ 5.29 µM); with E. Coli 13353 it was 1 µg/mL (≈ 2.64 µM); in the assay with E. Coli M 36 it was 0.5 µg/mL (≈ 1.32 µM); in the assay on E. Coli 7 MP it was 2 µg/mL (≈ 5.29 µM). In addition, the MIC against E. Coli M 49 was 4 µg/mL (≈ 10.6 µM); in the assay on E. Coli M 50, 1 µg/mL (≈ 2.64 µM); in the assay on E. Coli M 138 it was 1 µg/mL (≈ 2.64 µM); against E. Coli S 18, 1 µg/mL (≈ 2.64 µM); against K. pneumoniae H 521, 2 µg/mL (≈ 5.29 µM); against K. pneumoniae H 522 it was 2 µg/mL (≈ 5.29 µM). The minimal inhibitory concentration (MIC) in the assay with K. pneumoniae H 523 and with K. pneumoniae H 525 was 2 µg/mL (≈ 5.29 µM) throughout.
